One experiment concerns the target Human Full Length PARG (Homo sapiens (Human), UniProt Q86W56). In words: PARG enzyme assay (TR-FRET). The class given is biochemical.
The test system of another experiment is PARG in HeLa cell line. Kind of experiment: PARG cell assay (PAR chain immunofluorescence after MMS). The class given is cell-based. Conditions: HeLa cells. The method, boiled down:
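Nuclear poly(ADP-ribose) chains in HeLa cells are read by indirect immunofluorescence with a mouse anti-PAR antibody applied overnight at 4° C after fixing and permeabilising. Cells get 1 h of compound, then 50 μg/mL MMS (final) for another hour. PAR persisting at that point reflects PARG inhibition.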

Setting [1] is: MMS treatment, read-out: PARG Cell IC50.
Where [2] appears, read: Homo sapiens, MMS treatment, read-out: PARG Cell IC50.
The mark [3] stands for this setting: read-out: PARG Biochem IC50 Geomean.
[4] abbreviates: MMS 50 μg/mL, read-out: PARG Cell IC50 Geomean.
[5] abbreviates: Homo sapiens, MMS 50 μg/mL, read-out: PARG Cell IC50 Geomean.

The record followed here is patent US10239843B2 (CANCER RESEARCH TECHNOLOGY LIMITED, priority 2014, dated 2019).

Where two headings read alike, the source gives them in different places.

Sequence of Human Full Length PARG (Q86W56 whole entry): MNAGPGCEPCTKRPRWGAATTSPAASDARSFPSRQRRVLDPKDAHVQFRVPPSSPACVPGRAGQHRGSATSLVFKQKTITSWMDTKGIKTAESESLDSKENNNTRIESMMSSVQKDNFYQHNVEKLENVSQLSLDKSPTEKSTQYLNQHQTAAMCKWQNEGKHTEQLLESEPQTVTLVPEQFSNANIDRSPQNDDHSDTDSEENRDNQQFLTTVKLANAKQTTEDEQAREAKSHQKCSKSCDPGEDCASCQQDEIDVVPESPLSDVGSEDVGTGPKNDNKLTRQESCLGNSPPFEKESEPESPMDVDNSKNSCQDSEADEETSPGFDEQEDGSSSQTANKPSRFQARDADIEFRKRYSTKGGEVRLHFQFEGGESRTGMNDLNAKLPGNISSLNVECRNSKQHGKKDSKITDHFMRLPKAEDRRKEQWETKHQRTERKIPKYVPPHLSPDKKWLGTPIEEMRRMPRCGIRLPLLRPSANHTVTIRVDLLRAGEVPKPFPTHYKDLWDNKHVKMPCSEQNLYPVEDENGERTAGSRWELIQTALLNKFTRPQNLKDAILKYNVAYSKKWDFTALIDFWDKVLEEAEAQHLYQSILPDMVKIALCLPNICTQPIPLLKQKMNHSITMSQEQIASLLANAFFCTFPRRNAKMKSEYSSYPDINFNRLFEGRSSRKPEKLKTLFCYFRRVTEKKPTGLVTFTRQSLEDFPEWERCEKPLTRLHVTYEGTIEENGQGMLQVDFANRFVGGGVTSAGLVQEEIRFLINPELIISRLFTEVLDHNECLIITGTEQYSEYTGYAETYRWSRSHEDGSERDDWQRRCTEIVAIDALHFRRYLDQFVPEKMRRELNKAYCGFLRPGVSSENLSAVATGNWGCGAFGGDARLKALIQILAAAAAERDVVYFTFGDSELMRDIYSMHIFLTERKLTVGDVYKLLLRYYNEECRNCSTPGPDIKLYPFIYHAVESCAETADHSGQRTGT

Regarding `Cn1cc(Cn2c(=O)c3cc(S(=O)(=O)NC4(CF)CC4)ccc3n(Cc3cscn3)c2=O)cn1` [Example 581, N-[1-(Fluoromethyl)cyclopropyl]-3-[(1-methylpyrazol-4-yl)methyl]-2,4-dioxo-1-(thiazol-4-ylmethyl)quinazoline-6-sulfonamide], the results for the IC50 on Human Full Length PARG (read-out: PARG Biochem IC50) and in the experiment on PARG in HeLa cell line (setting [1]) were 57 nM and 55 nM, respectively.

On to `Cn1cc(Cn2c(=O)c3cc(S(=O)(=O)NC4(CF)CC4)ccc3n(Cc3cn(C)nn3)c2=O)cn1` [Example 593, N-[1-(Fluoromethyl)cyclopropyl]-3-[(1-methylpyrazol-4-yl)methyl]-1-[(1-methyltriazol-4-yl)methyl]-2,4-dioxo-quinazoline-6-sulfonamide], for which the values for the IC50 at Human Full Length PARG (read-out: PARG Biochem IC50) and with PARG in HeLa cell line (setting [1]) were 112 nM and 523 nM, respectively.

With `Cn1cc(Cn2c(=O)c3cc(S(=O)(=O)NC4(CF)CC4)ccc3n(Cc3ncccc3F)c2=O)cn1` [Example 542, N-[1-(Fluoromethyl)cyclopropyl]-1-[(3-fluoro-2-pyridyl)methyl]-3-[(1-methylpyrazol-4-yl)methyl]-2,4-dioxo-quinazoline-6-sulfonamide], the IC50 at Human Full Length PARG (read-out: PARG Biochem IC50) was 349 nM; with PARG in HeLa cell line (setting [2]), 330 nM.

Consider `Cc1cc(Cn2c(=O)c3cc(S(=O)(=O)NC4(C)CC4)ccc3n(CC3CCCCO3)c2=O)on1` (centres unmarked) [Example 266], for which the figures for the IC50 at Human Full Length PARG (setting [3]) and in the experiment on PARG in HeLa cell line (setting [4]) were 296 nM and 214 nM, respectively.

Turning to `COCCn1c(=O)n(Cc2cnn(C)c2)c(=O)c2cc(S(=O)(=O)NC3(C#N)CC3)ccc21` [Example 357], the IC50 at Human Full Length PARG (setting [3]) was 153 nM; in the experiment with PARG in HeLa cell line (setting [5]), 1600 nM.

Regarding `Cn1cc(Cn2c(=O)c3cc(S(=O)(=O)NC4(CF)CC4)ccc3n(Cc3c[nH]cn3)c2=O)cn1` [Example 575, N-[1-(Fluoromethyl)cyclopropyl]-1-(1H-imidazol-4-ylmethyl)-3-[(1-methylpyrazol-4-yl)methyl]-2,4-dioxo-quinazoline-6-sulfonamide], the figures for the IC50 at Human Full Length PARG (read-out: PARG Biochem IC50) and in the experiment with PARG in HeLa cell line (setting [2]) were 88 nM and 1570 nM, respectively.

Consider `Cn1cc(Cn2c(=O)[nH]c3ccc(S(=O)(=O)NC4(C#N)CC4)cc3c2=O)cn1` [Example 336, N-(1-Cyanocyclopropyl)-3-[(1-methylpyrazol-4-yl)methyl]-2,4-dioxo-1H-quinazoline-6-sulfonamide], for which the IC50 at Human Full Length PARG (setting [3]) was found to be 401 nM; in the experiment with PARG in HeLa cell line (setting [4]) it was 17900 nM.

In the case of `Cn1cc(Cn2c(=O)c3cc(S(=O)(=O)NC4(C)CC4)c(F)cc3n(CC3(C)COC3)c2=O)cn1` [Example 398, 7-Fluoro-3-((1-methyl-1H-pyrazol-4-yl)methyl)-N-(1-methylcyclopropyl)-1-((3-methyloxetan-3-yl)methyl)-2,4-dioxo-1,2,3,4-tetrahydroquinazoline-6-sulfonamide], the IC50 came to 44 nM at Human Full Length PARG (read-out: PARG Biochem IC50) and 257 nM in the experiment on PARG in HeLa cell line (setting [2]).

`Cc1cc(Cn2c(=O)c3cc(S(=O)(=O)NC4(CF)CC4)ccc3n(Cc3nc(C)nn3C)c2=O)on1` [Example 554, 1-[(2,5-Dimethyl-1,2,4-triazol-3-yl)methyl]-N-[1-(fluoromethyl)cyclopropyl]-3-[(3-methylisoxazol-5-yl)methyl]-2,4-dioxo-quinazoline-6-sulfonamide]: the IC50 at Human Full Length PARG (read-out: PARG Biochem IC50) turned out to be 499 nM; in the experiment with PARG in HeLa cell line (setting [2]) it was 604 nM.

`COCCOCCn1c(=O)n(Cc2cnn(C)c2)c(=O)c2cc(S(=O)(=O)NC3(CF)CC3)ccc21` [Example 618, N-[1-(Fluoromethyl)cyclopropyl]-1-[2-(2-methoxyethoxy)ethyl]-3-[(1-methylpyrazol-4-yl)methyl]-2,4-dioxo-quinazoline-6-sulfonamide]: the IC50 at Human Full Length PARG (read-out: PARG Biochem IC50) is 247 nM; in the experiment on PARG in HeLa cell line (setting [1]), 325 nM.

For `Cc1cc(Cn2nc(C(C)C)c3ccc(S(=O)(=O)NC4(C)CC4)cc3c2=O)on1` [Example 310], the figures for the IC50 at Human Full Length PARG (setting [3]) and in the experiment on PARG in HeLa cell line (setting [5]) were 307 nM and 455 nM, respectively.

With `Cc1cc(Cn2c(=O)n(Cc3c(C)noc3C)c(=O)c3cc(S(=O)(=O)NC4(C)CC4)ccc32)n(C)n1` [Example 166], the IC50 amounted to 131 nM on Human Full Length PARG (setting [3]) and 229 nM in the experiment with PARG in HeLa cell line (setting [5]).

With `Cn1cc(Cn2c(=O)c3cc(S(=O)(=O)NC4(CF)CC4)ccc3n(Cc3ccc(F)cc3)c2=O)cn1` [Example 419, N-[1-(Fluoromethyl)cyclopropyl]-1-[(4-fluorophenyl)methyl]-3-[(1-methylpyrazol-4-yl)methyl]-2,4-dioxo-quinazoline-6-sulfonamide], the figures for the IC50 on Human Full Length PARG (read-out: PARG Biochem IC50) and with PARG in HeLa cell line (setting [2]) were 106 nM and 118 nM, respectively.

On to `Cn1cc(Cn2c(=O)c3cc(S(=O)(=O)NC4(C)CC4)ccc3n(CCCOC(F)(F)F)c2=O)cn1` [Example 264], for which the IC50 on Human Full Length PARG (setting [3]) was determined as 256 nM; in the experiment on PARG in HeLa cell line (setting [5]) it was 187 nM.

For `Cn1c(=O)n(CC(=O)N2CCCC2)c(=O)c2cc(S(=O)(=O)NC3(C)CC3)ccc21` [Example 475, 1-Methyl-N-(1-methylcyclopropyl)-2,4-dioxo-3-(2-oxo-2-pyrrolidin-1-yl-ethyl)quinazoline-6-sulfonamide], the figures for the IC50 on Human Full Length PARG (read-out: PARG Biochem IC50) and with PARG in HeLa cell line (setting [2]) were 6120 nM and 1170 nM, respectively.

Regarding `Cn1c(=O)c2cc(S(=O)(=O)NC3(C)CC3)ccc2n(Cc2cncs2)c1=O` [Example 143], the IC50 on Human Full Length PARG (setting [3]) came to 342 nM; in the experiment on PARG in HeLa cell line (setting [4]), 538 nM.

Consider `Cn1cc(Cn2c(=O)[nH]c3cc(F)c(S(=O)(=O)NC4(C)CC4)cc3c2=O)cn1` [Example 384, 7-Fluoro-N-(1-methylcyclopropyl)-3-[(1-methylpyrazol-4-yl)methyl]-2,4-dioxo-1H-quinazoline-6-sulfonamide], for which the IC50 at Human Full Length PARG (setting [3]) is 374 nM; in the experiment on PARG in HeLa cell line (setting [4]), 974 nM.

In the case of `C#CC1(NS(=O)(=O)c2ccc3[nH]c(=O)n(Cc4cnn(C)c4)c(=O)c3c2)CC1` [Example 431, N-(1-Ethynylcyclopropyl)-3-[(1-methylpyrazol-4-yl)methyl]-2,4-dioxo-1H-quinazoline-6-sulfonamide], the IC50 on Human Full Length PARG (read-out: PARG Biochem IC50) was 3720 nM; in the experiment with PARG in HeLa cell line (setting [1]), 3030 nM.

Regarding `CCn1c(=O)n(Cc2cc(C)no2)c(=O)c2cc(S(=O)(=O)NC3(CF)CC3)ccc21` [Example 520, 1-Ethyl-N-[1-(fluoromethyl)cyclopropyl]-3-[(3-methylisoxazol-5-yl)methyl]-2,4-dioxo-quinazoline-6-sulfonamide], the IC50 at Human Full Length PARG (read-out: PARG Biochem IC50) is 162 nM; in the experiment on PARG in HeLa cell line (setting [1]) it was 92 nM.

`COc1cccc(Cn2c(=O)n(Cc3cc(C)no3)c(=O)c3cc(S(=O)(=O)NC4(C)CC4)ccc32)c1` [Example 200]: the IC50 at Human Full Length PARG (setting [3]) was 250 nM; in the experiment on PARG in HeLa cell line (setting [5]) it was 223 nM.

As to `Cc1cc(Cn2c(=O)n(Cc3cnn(C)c3)c(=O)c3cc(S(=O)(=O)NC4(CF)CC4)ccc32)[nH]n1` [Example 561, N-[1-(Fluoromethyl)cyclopropyl]-3-[(1-methylpyrazol-4-yl)methyl]-1-[(3-methyl-1H-pyrazol-5-yl)methyl]-2,4-dioxo-quinazoline-6-sulfonamide], the IC50 is 95 nM on Human Full Length PARG (read-out: PARG Biochem IC50) and 570 nM in the experiment on PARG in HeLa cell line (setting [2]).

As to `Cc1cc(Cn2c(=O)c3cc(S(=O)(=O)NC4(C)CC4)ccc3n(CC3CC(=O)C3)c2=O)on1` [Example 412, N-(1-Methylcyclopropyl)-3-[(3-methylisoxazol-5-yl)methyl]-2,4-dioxo-1-[(3-oxocyclobutyl)methyl]quinazoline-6-sulfonamide], the IC50 on Human Full Length PARG (read-out: PARG Biochem IC50) is 440 nM; with PARG in HeLa cell line (setting [2]), 289 nM.

On to `Cc1cc(Cn2c(=O)n(Cc3cnn(C)c3)c(=O)c3cc(S(=O)(=O)NC4(C(F)(F)F)CC4)ccc32)n(C)n1` [Example 485, 1-[(2,5-Dimethylpyrazol-3-yl)methyl]-3-[(1-methylpyrazol-4-yl)methyl]-2,4-dioxo-N-[1-(trifluoromethyl)cyclopropyl]quinazoline-6-sulfonamide], for which the IC50 on Human Full Length PARG (read-out: PARG Biochem IC50) came out at 7100 nM; with PARG in HeLa cell line (setting [1]) it was 4070 nM.

As to `Cn1cc(Cn2c(=O)n(C)c(=O)c3cc(S(=O)(=O)NC4(C)CC4)ccc32)cn1` [Example 152], the figures for the IC50 at Human Full Length PARG (setting [3]) and in the experiment on PARG in HeLa cell line (setting [5]) were 463 nM and 520 nM, respectively.

Turning to `Cc1cc(Cn2c(=O)c3cc(S(=O)(=O)NC4(C)CC4)ccc3n(Cc3ccc(F)cc3)c2=O)on1` [Example 199], the IC50 was determined as 92 nM at Human Full Length PARG (setting [3]) and 99 nM in the experiment on PARG in HeLa cell line (setting [4]).

Consider `Cc1cc(Cn2c(=O)n(Cc3cnn(C)c3)c(=O)c3cc(S(=O)(=O)NC4(CF)CC4)ccc32)ccn1` [Example 541, N-[1-(Fluoromethyl)cyclopropyl]-3-[(1-methylpyrazol-4-yl)methyl]-1-[(2-methyl-4-pyridyl)methyl]-2,4-dioxo-quinazoline-6-sulfonamide], for which the IC50 came to 113 nM at Human Full Length PARG (read-out: PARG Biochem IC50) and 227 nM in the experiment with PARG in HeLa cell line (setting [2]).

Take `Cc1cc(Cn2c(=O)c3cc(S(=O)(=O)NC4(C)CC4)ccc3n(CC(F)(F)F)c2=O)on1` [Example 325]: the IC50 on Human Full Length PARG (setting [3]) amounted to 431 nM; in the experiment with PARG in HeLa cell line (setting [5]), 320 nM.

As to `Cn1cc(Cn2c(=O)c3cc(S(=O)(=O)NC4(CF)CC4)ccc3n(Cc3ccc(C#N)cc3)c2=O)cn1` [Example 543, 1-[(4-Cyanophenyl)methyl]-N-[1-(fluoromethyl)cyclopropyl]-3-[(1-methylpyrazol-4-yl)methyl]-2,4-dioxo-quinazoline-6-sulfonamide], the IC50 at Human Full Length PARG (read-out: PARG Biochem IC50) was found to be 58 nM; in the experiment with PARG in HeLa cell line (setting [2]), 70 nM.

With `CN1CCC(Cn2c(=O)n(Cc3cnn(C)c3)c(=O)c3cc(S(=O)(=O)NC4(C)CC4)ccc32)CC1` [Example 372], the IC50 is 146 nM on Human Full Length PARG (setting [3]) and 2140 nM in the experiment with PARG in HeLa cell line (setting [5]).

Regarding `CNCCCn1c(=O)n(Cc2cc(C)no2)c(=O)c2cc(S(=O)(=O)NC3(C)CC3)ccc21` [Example 250], the IC50 was 323 nM on Human Full Length PARG (setting [3]) and 328 nM in the experiment with PARG in HeLa cell line (setting [5]).

With `CCN(CC)CCn1c(=O)n(Cc2cnn(C)c2)c(=O)c2cc(S(=O)(=O)NC3(CF)CC3)ccc21` [Example 611, 1-[2-(Diethylamino)ethyl]-N-[1-(fluoromethyl)cyclopropyl]-3-[(1-methylpyrazol-4-yl)methyl]-2,4-dioxo-quinazoline-6-sulfonamide], the IC50 came out at 113 nM at Human Full Length PARG (read-out: PARG Biochem IC50) and 249 nM with PARG in HeLa cell line (setting [2]).

As usually defined, the IC50 is the midpoint of a concentration-inhibition curve.
